What was measured:
Format in all cases: biochemical
[1] = target: dihydroxyacid dehydratase (DHAD) (Streptococcus mutans serotype c, UniProt Q8DRT7); assay: Inhibition of DHAD conversion of DHIV to 2-KIV by DHMB, colorimetric assay; conditions: read-out: inhibition constants (Ki) for DHAD
Method: 101: 999-1004 (1993). The assay took place in a 2 mL Eppendorf tube placed in a heating block maintained at 30° C. […] The assay was initiated by adding a 10× concentrated stock of substrate. Samples were removed (0.35 mL) at times 0.1 and 30 minutes, and the reaction was stopped by mixing into 0.35 mL 0.1 N HCl with 0.05% 2,4-dinitrophenylhydrazine (Aldrich) in a second Eppendorf tube. After incubating 30 minutes at room temperature, 0.35 mL of 4N NaOH was added to the mixture, mixed, and centrifuged at 15,000×G for 2 minutes in a centrifuge (Beckman-Coulter Microfuge 18). The absorbance of the solution at 540 nm was then measured in a 1 cm pathlength cuvette using a Cary 300 Bio UV-Vis spectrophometer (Varian). Based on a standard curve using authentic 2-KIV (Fluka), 1 OD absorbance at 540 nm is produced by 0.28 mM 2-KIV. […] Both forms of DHMB behaved liked competitive inhibitors of DHIV. […] The fast and slow isomers of DHMB had calculated inhibition constants of 7 mM and 5 mM, respectively.

[2] = target: JEA1 (derivative of Pseudomonas fluorescens KARI) (Pseudomonas fluorescens, UniProt Q4K608); assay: Inhibition of purified KARI by DHMB, spectrophotometric NADPH oxidation assay; conditions: competitive vs. acetolactate, 30° C., pH 6.8, NADPH 0.2 mM, read-out: KI Values for KARI Inhibition by DHMB Isomers
Chain of JEA1 (derivative of Pseudomonas fluorescens KARI) (Q4K608 whole entry): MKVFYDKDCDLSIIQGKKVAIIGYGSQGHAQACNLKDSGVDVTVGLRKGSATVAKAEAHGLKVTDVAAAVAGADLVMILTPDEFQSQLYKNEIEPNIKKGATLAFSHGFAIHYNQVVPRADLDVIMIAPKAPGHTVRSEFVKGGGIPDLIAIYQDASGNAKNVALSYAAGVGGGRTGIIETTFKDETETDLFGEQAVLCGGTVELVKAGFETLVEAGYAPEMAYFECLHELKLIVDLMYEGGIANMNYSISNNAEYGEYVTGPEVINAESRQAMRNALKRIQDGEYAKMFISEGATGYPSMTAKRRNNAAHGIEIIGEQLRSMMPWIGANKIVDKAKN
Method: (§1) The buffer was 0.1 M K^+ Hepes, pH 6.8, containing 10 mM MgCl2 and 1 mM EDTA. NADPH was present at 0.2 mM, and racemic acetolactate was present at either 3 mM or 0.725 mM (S) isomer. The rate of NADPH oxidation in the presence and absence of either fast or slow DHMB was measured. Vmax for each sample was calculated from the observed rate and the known acetolactate Km using the Michaelis-Menten equation. A volumetric Ki was estimated for each measurement in the presence of DHMB using the Michaelis-Menten equation as modified for competitive inhibition vs. acetolactate (the Km term in the MM equation is multiplied by (1+[I]/Ki), and the equation is solved for Ki. The results were converted to mM upon completion of the NMR experiment and are shown in Table 5.

[3] = target: K9D3 (derivative of Anaerostipes caccae KARI) (Anaerostipes caccae, UniProt B0MCX7, S56A/S58D); assay: as above; conditions: competitive vs. acetolactate, 30° C., pH 6.8, NADPH 0.2 mM, read-out: KI Values for KARI Inhibition by DHMB Isomers
Chain of K9D3 (derivative of Anaerostipes caccae KARI) (B0MCX7 1-343, stated change not applied): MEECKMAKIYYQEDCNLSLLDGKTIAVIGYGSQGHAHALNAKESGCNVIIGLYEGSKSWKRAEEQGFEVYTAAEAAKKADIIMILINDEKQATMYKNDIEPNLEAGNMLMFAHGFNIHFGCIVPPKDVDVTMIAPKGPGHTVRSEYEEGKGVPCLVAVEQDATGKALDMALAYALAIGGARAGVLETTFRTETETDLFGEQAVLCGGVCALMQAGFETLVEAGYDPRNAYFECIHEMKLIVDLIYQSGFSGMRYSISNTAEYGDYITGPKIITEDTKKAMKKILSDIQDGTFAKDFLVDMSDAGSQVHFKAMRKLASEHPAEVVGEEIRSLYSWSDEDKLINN
Method: as §1

Chain of dihydroxyacid dehydratase (DHAD) (Q8DRT7 whole entry): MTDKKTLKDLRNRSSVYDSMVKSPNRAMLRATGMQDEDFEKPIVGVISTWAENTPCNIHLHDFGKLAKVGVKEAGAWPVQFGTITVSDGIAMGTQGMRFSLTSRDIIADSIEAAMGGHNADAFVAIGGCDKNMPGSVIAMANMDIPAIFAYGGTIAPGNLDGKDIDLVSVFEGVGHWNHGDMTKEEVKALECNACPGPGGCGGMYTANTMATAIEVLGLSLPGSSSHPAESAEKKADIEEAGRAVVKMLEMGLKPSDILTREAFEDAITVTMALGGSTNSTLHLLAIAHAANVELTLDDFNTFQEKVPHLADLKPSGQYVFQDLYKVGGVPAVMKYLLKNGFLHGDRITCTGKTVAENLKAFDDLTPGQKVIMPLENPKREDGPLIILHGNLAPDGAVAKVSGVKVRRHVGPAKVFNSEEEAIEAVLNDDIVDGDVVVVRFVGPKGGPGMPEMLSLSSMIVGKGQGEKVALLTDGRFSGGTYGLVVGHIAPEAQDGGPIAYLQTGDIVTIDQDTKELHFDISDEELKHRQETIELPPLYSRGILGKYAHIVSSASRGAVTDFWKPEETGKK

Row | SMILES | Ki [1] | Ki [2] | Ki [3]
1 | C[C@H](O)[C@](C)(O)C(=O)O [Fast DHMB, 2,3-dihydroxy-2-methyl butyrate] | 7000 µM | 230 µM | 300 µM
2 | C[C@@H](O)[C@](C)(O)C(=O)O [Slow DHMB, 2,3-dihydroxy-2-methyl butyrate] | 5000 µM | 230 µM | 200 µM

Source: patent US20120258873A1 (priority 2011, published 2012)
